Test system: healthy subjects
Assay: Phase 1 healthy volunteer study, single oral dose: treatment-emergent adverse events
Format: in vivo, human
Protocol: A Phase 1 randomized, double-blind, placebo-controlled study to evaluate the effect of psilocybin on cognitive and emotional processing as compared to placebo in healthy volunteers was conducted. The study investigated the short-term (Day 7) and long-term (Day 28) effects of moderate (10 mg) and high doses (25 mg) of psilocybin on key domains of cognition, such as episodic memory, attention, working and spatial memory, social cognition and elements of executive function, including cognitive flexibility.
90 healthy subjects were studied. Approximately 50% of the subjects were psilocybin-naïve. For subjects with prior psilocybin experience, the last exposure was at least 1 year prior to the signing of the Informed Consent Form (ICF). Approximately 50% of the subjects were female. Subjects were stratified by sex and age (18-35 years old; >35 years old).
Each subject was assigned 1 treatment bottle containing 5 capsules packaged in a double-blind fashion, depending on the randomized treatment arm, the bottle contained one of the following: • a. Psilocybin 10 mg: 2×5-mg oral psilocybin capsules plus 3× placebo capsules • b. Psilocybin 25 mg: 5×5-mg oral psilocybin capsules • c. Placebo: 5× placebo capsules
Each 5-mg oral psilocybin capsule comprised 5 mg crystalline psilocybin in the form of Polymorph A, 12.5 mg of SMCC 50, 79.5 mg of SMCC 90, 1 mg sodium starch glycolate, 1 mg colloidal silicon dioxide, and 1 mg sodium stearyl fumarate
Adverse events: Throughout the course of the study, all AEs were monitored and recorded. Each AE was classified according to the following criteria: • i. […] Moderate: The AE produces some impairment of functioning, but is not hazardous to the subject's health. • iii. Severe: The AE produces significant impairment of functioning or incapacitation and is a definite hazard to the subject's health.
Selected Adverse Events of included: • (a) Euphoric mood • (b) Dissociative disorder • (c) Hallucination • (d) Psychotic disorder • (e) Cognitive disorder • (f) Disturbance in attention • (g) Altered mood • (h) Impairment of psychomotor skills • (i) Inappropriate affect • (j) Overdose • (k) Intentional product misuse • (l) Illusion
For example, drug-induced hepatitis that resolved without evidence of hepatic failure would not be considered life threatening even though drug-induced hepatitis can be fatal. • (c) Inpatient hospitalization or prolongation of existing hospitalization. • (d) Persistent or significant disability/incapacity. • (e) Congenital anomaly/birth defect in the offspring of a subject who received psilocybin. • (f) Other: Important medical events that may not result in death, be life-threatening, or require hospitalization, may be considered an SAE when, based upon appropriate medical judgment, they may jeopardize the subject and may require medical or surgical intervention to prevent one of the outcomes listed in this definition. […] Visits:
Visit 3 (V3): Drug Administration (Day 0): The subject was asked to eat a light breakfast at least two hours prior to coming to the clinic for study drug administration. On Day 0 (V3), the subject underwent the SSTS, had vital signs obtained, medications reviewed, AEs recorded and eligibility reviewed prior to being randomized to study drug. The study drug was administered to up to six subjects simultaneously in individual beds separated by a curtain. The subject was invited to put on eyeshades and headphones, lie down and listen to calming music for the rest of the session (six hours). The subject was supported 1:1 with a chaperone and supervised by the study psychiatrist and lead therapist.
Recording of adverse events and prior/concomitant medication was performed at each visit.
During administration of psilocybin, each subject received one on one support from a trained assisting therapist and each dosing session was supervised by a study psychiatrist and a lead therapist. […]

Compound: CN(C)CCc1c[nH]c2cccc(OP(=O)(O)O)c12 [psilocybin]
- Infections and infestations, worst severity Severe: N (%) (10 mg): 0
- Infections and infestations: Events (10 mg): 4
- Investigations, worst severity Mild: Events (10 mg): 2
- Investigations, worst severity Moderate: Events (10 mg): 0
- Investigations, worst severity Moderate: N (%) (10 mg): 0
- Investigations, worst severity Severe: Events (10 mg): 0
- Investigations, worst severity Severe: N (%) (10 mg): 0
- Investigations: Events (10 mg): 2
- Mental fatigue: Events (10 mg): 0
- Mental fatigue: N (%) (10 mg): 0
- Mood altered, worst severity Mild: Events (10 mg): 2
- Mood altered, worst severity Moderate: Events (10 mg): 8
- Mood altered, worst severity Severe: Events (10 mg): 9
- Mood altered, worst severity Severe: N (%) (10 mg): 6 (20.0)
- Mood altered: Events (10 mg): 23
- Musculoskeletal and connective tissue disorders, worst severity Mild: Events (10 mg): 0
- Musculoskeletal and connective tissue disorders, worst severity Mild: N (%) (10 mg): 0
- Musculoskeletal and connective tissue disorders, worst severity Moderate: Events (10 mg): 1
- Musculoskeletal and connective tissue disorders, worst severity Severe: Events (10 mg): 0
- Musculoskeletal and connective tissue disorders, worst severity Severe: N (%) (10 mg): 0
- Musculoskeletal and connective tissue disorders: Events (10 mg): 1
- Nausea: Events (10 mg): 1
- Nervous system disorders, worst severity Mild: Events (10 mg): 23
- Nervous system disorders, worst severity Moderate: Events (10 mg): 8
- Nervous system disorders, worst severity Moderate: N (%) (10 mg): 6 (20.0)
- Nervous system disorders, worst severity Severe: Events (10 mg): 0
- Nervous system disorders, worst severity Severe: N (%) (10 mg): 0
- Nervous system disorders: Events (10 mg): 35
- Paraesthesia, worst severity Mild: Events (10 mg): 4
- Paraesthesia, worst severity Moderate: Events (10 mg): 0
- Paraesthesia, worst severity Moderate: N (%) (10 mg): 0
- Paraesthesia, worst severity Severe: Events (10 mg): 0
- Paraesthesia, worst severity Severe: N (%) (10 mg): 0
- Paraesthesia: Events (10 mg): 4
- Psychiatric disorders, worst severity Mild: Events (10 mg): 6
- Psychiatric disorders, worst severity Moderate: Events (10 mg): 29
- Psychiatric disorders, worst severity Severe: Events (10 mg): 21
- Respiratory, thoracic and mediastinal disorders: Events (10 mg): 0
- Respiratory, thoracic and mediastinal disorders: N (%) (10 mg): 0
- Somatic hallucination, worst severity Mild: Events (10 mg): 1
- Somatic hallucination, worst severity Moderate: Events (10 mg): 7
- Somatic hallucination, worst severity Severe: Events (10 mg): 0
- Somatic hallucination, worst severity Severe: N (%) (10 mg): 0
- Somatic hallucination: Events (10 mg): 8
- Tension headache, worst severity Mild: Events (10 mg): 1
- Tension headache, worst severity Moderate: Events (10 mg): 2
- Tension headache, worst severity Severe: Events (10 mg): 0
- Tension headache, worst severity Severe: N (%) (10 mg): 0
- Tension headache: Events (10 mg): 3
- Tension headache: N (%) (10 mg): 3 (10.0)
- Time perception altered, worst severity Mild: Events (10 mg): 1
- Time perception altered, worst severity Moderate: Events (10 mg): 1
- Time perception altered, worst severity Severe: Events (10 mg): 0
- Time perception altered, worst severity Severe: N (%) (10 mg): 0
- Time perception altered: Events (10 mg): 2
- Incidence of Illusion, Hallucination (visual), Mood altered, Headache, Fatigue and Euphoric mood compared to placebo (10 mg and 25 mg): higher
- Majority of the severe TEAEs (system organ class) (10 mg and 25 mg arms): psychiatric disorders
- Serious adverse events or adverse events that led to withdrawal (10 mg and 25 mg, 12-week study): no serious adverse events or adverse events that led to withdrawal
- Reported 'Mood altered' events: Being less judgmental (10 mg psilocybin (n = 30)): 1
- Reported 'Mood altered' events: Calm (10 mg psilocybin (n = 30)): 0
- Reported 'Mood altered' events: Clarity of thought (10 mg psilocybin (n = 30)): 0
- Reported 'Mood altered' events: Contemplative state (10 mg psilocybin (n = 30)): 1
- Reported 'Mood altered' events: Feeling more moody/sensitive (10 mg psilocybin (n = 30)): 1
- Reported 'Mood altered' events: Feeling of adrenaline release (10 mg psilocybin (n = 30)): 0
- Reported 'Mood altered' events: Feeling rested (10 mg psilocybin (n = 30)): 1
- Reported 'Mood altered' events: Increased compassion (10 mg psilocybin (n = 30)): 0
- Reported 'Mood altered' events: Increased creativity (10 mg psilocybin (n = 30)): 0
- Reported 'Mood altered' events: Increased empathy (10 mg psilocybin (n = 30)): 2
- Reported 'Mood altered' events: Increased sense of connectedness (10 mg psilocybin (n = 30)): 0
- Reported 'Mood altered' events: Increased wit (10 mg psilocybin (n = 30)): 1
- Reported 'Mood altered' events: Introspection (10 mg psilocybin (n = 30)): 5
- Reported 'Mood altered' events: Laughter (10 mg psilocybin (n = 30)): 1
- Reported 'Mood altered' events: More socially upbeat (10 mg psilocybin (n = 30)): 0
- Reported 'Mood altered' events: Negative mood (10 mg psilocybin (n = 30)): 0
- Reported 'Mood altered' events: Reflections (10 mg psilocybin (n = 30)): 3
- Reported 'Mood altered' events: Saw themselves from a new perspective (10 mg psilocybin (n = 30)): 0
- Reported 'Mood altered' events: Sense of oneness (10 mg psilocybin (n = 30)): 4
- Reported 'Mood altered' events: Sense of openness (10 mg psilocybin (n = 30)): 1
- Reported 'Mood altered' events: Unusual appreciation of music (10 mg psilocybin (n = 30)): 0
- Any TEAE: % of subjects (10 mg, listed as Psilocybin): (96.7) %
- AEs potentially related to study treatment, % of AEs in arm (25 mg): 95.9%
- Affect lability, worst severity Mild: Events (25 mg): 2
- Affect lability, worst severity Moderate: Events (25 mg): 1
- Affect lability, worst severity Severe: Events (25 mg): 0
- Affect lability, worst severity Severe: N (%) (25 mg): 0
- Affect lability: Events (25 mg): 3
- Affect lability: N (%) (25 mg): 3 (10.0)
- Any Selected TEAE: % of subjects (25 mg): (90.0) %
- Any Selected TEAE: N (%) (25 mg): 27
- Any TEAE leading to death: Events (25 mg): 0
- Any TEAE leading to death: N (%) (25 mg): 0
- Any TEAE leading to study discontinuation: Events (25 mg): 0
- Any TEAE leading to study discontinuation: N (%) (25 mg): 0
- Any TEAE related to study treatment: % of subjects (25 mg): (96.7) %
- Any TEAE related to study treatment: N (%) (25 mg): 29
- Any TEAE, worst severity Mild: Events (25 mg): 14
- Any TEAE, worst severity Mild: N (%) (25 mg): 3 (10.0)
- Any TEAE, worst severity Moderate: Events (25 mg): 52
- Any TEAE, worst severity Severe: Events (25 mg): 29
- Any TEAE: % of subjects (25 mg): 96.7%
- Any serious TEAE related to study treatment: Events (25 mg): 0
- Any serious TEAE related to study treatment: N (%) (25 mg): 0
- Any serious TEAE: Events (25 mg): 0
- Any serious TEAE: N (%) (25 mg): 0

Source: patent publication US11865126B2, “Method for treating anxiety disorders, headache disorders, and eating disorders with psilocybin” (priority 2019, dated 2024)
